According to patent US20160000883A1, “COMBINATION OF ACYLATED GLUCAGON ANALOGUES WITH INSULIN ANALOGUES” (ZEALAND PHARMA A/S, priority 2011, published 2016):
Numbered stars: 1 amine (or outer) side, 2 acyl side, 3 side chain; on linkers, the order of the positions; unused ones are H or OH. Square brackets hold non-standard residues; d marks the D form. Side chains are listed from the residue outwards. * marks the point of attachment. γGlu = O=C(O)[C@H](CCC(=O)[*:2])N[*:1]; Palmitoyl = CCCCCCCCCCCCCCCC(=O)*; Aib = CC(C)(N)C(=O)O

Experiments:
[1] = tested on: db/db (BKS.Cg-m+/+Lepr^db/J) female mice; assay: 21-day s.c. treatment of db/db mice: body weight, food and water intake; format: in vivo; conditions: 21 days, bi-daily s.c., Lantus 3 U, Levemir 6 U, Compound X 10 nmol/kg, vs. vehicle (FIG. 1)
Text: Eighty (80) db/db (BKS.Cg-m+/+Lepr^db/J) female mice aged 7 weeks were obtained from Charles River, US. The mice were acclimatized in their new environment and allowed free access to normal chow (Altromin 1324, Brogaarden A/S, Gentofte, Denmark) and domestic quality tap water added citric acid to pH ˜3.6, except as indicated. The mice were group-housed with 3-4 mice per cage in a light-, temperature-, and humidity-controlled room (12-hour light: 12-hour dark cycle, with lights on at 06.00 AM to 06.00 PM hour; 24° C.; 50% relative humidity).
Prior to treatment, in weeks 1-3, a tail-blood sample for the determination of blood glucose was obtained on non-fasted animals to determine diabetic state and to identify outliers, which were excluded. The inclusion criteria of BG>16 mM glucose was applied.
Stratification of the animals was based on HbA1c levels (primary) and BW as measured at baseline (day −4). Thus, on day −3, the 66 mice were selected based on the pre-screen and baseline measurements into 6 study groups of 11 mice (3-4 mice/cage).
(§1) All mice were mock treated for at 3 days (BID, SC, 100 μl vehicle) to acclimatize the animals to handling and injections. Dosing (day 0, mice at age 12 weeks as in pilot study) started in the afternoon on that day, and the mice were treated twice daily with 2 SC injections according to Table 1 for a total of 21 days (4 injections per day). Thus, last day of dosing was day 21 in the morning. The daily injections took place between 7:00 and 8:00 and between 14:00 and 15:00 with fresh solutions prepared in the morning (only Compound X). […]
Dosing solutions of Compound X for the weekend were prepared the Friday before. […] Throughout the study (day −2 to day 21) body weights (8W) were recorded daily and used to administer the body weight-corrected doses of substances. Food and water intake (FI, WI) was measured every day (day −3 to day 21) as cage averages.
In Vivo: female db/db mice aged 10-11 weeks were treated for 21 days with bi-daily s.c. injections. […] Fasting blood glucose (BG) was measured before and after 21 days of treatment.

[2] = tested on: db/db (BKS.Cg-m+/+Lepr^db/J) female mice; assay: 21-day s.c. treatment of db/db mice: fasting blood glucose (delta-BG); format: in vivo; conditions: fasted female db/db mice, over 21 days of bi-daily s.c. treatment; Lantus 3 U, Levemir 6 U, Compound X 10 nmol/kg; average +/- SEM (FIG. 4)
Method: as §1, with “X). Insulin was kept in the refrigerator.” for “X).”
On day 21 (before termination) in 8 h fasted mice a blood sample (350 μl) was taken, and BG, HbA1c, and p-insulin were measured as described above. […]
The whole blood glucose level was analyzed on tail-blood samples by the immobilized glucose oxidase method (Elite Auto analyser, Bayer, Denmark) following the manufacturer's protocol. Blood samples (sample size 30 μl) were analyzed for HbA1c using the Cobas c111 analyzer (Roche Diagnostics, Mannheim, Germany) in single determinations by Department of Molecular Pharmacology. Plasma (sample size 5 μl) and insulin content was measured using an insulin alpha-LISA assay in triplicate by Department of Molecular Pharmacology. A measure of peptide exposure in plasma (sample size 100 μl) will be determined by the Department of Bioanalysis and Pharmacokinetics. […]

Row | Substance | body weight (BW) change [1] | delta-BG (delta-Blood Glucose) [2] [mM]
1 | H-H-Aib-QGTFTSDYSKYLDS-K(Hexadecanoyl-isoGlu)-AAHDFVEWLLSA-NH2 (H-H[Aib]QGTFTSDYSKYLDSK([γGlu-Palmitoyl])AAHDFVEWLLSA-NH2; SMILES CCCCCCCCCCCCCCCC(=O)N[C@@H](CCC(=O)NCCCC[C@H](NC(=O)[C@H](CO)NC(=O)[C@H](CC(=O)O)NC(=O)[C@H](CC(C)C)NC(=O)[C@H](Cc1ccc(O)cc1)NC(=O)[C@H](CCCCN)NC(=O)[C@H](CO)NC(=O)[C@H](Cc1ccc(O)cc1)NC(=O)[C@H](CC(=O)O)NC(=O)[C@H](CO)NC(=O)[C@@H](NC(=O)[C@H](Cc1ccccc1)NC(=O)[C@@H](NC(=O)CNC(=O)[C@H](CCC(N)=O)NC(=O)C(C)(C)NC(=O)[C@@H](N)Cc1c[nH]cn1)[C@@H](C)O)[C@@H](C)O)C(=O)N[C@@H](C)C(=O)N[C@@H](C)C(=O)N[C@@H](Cc1c[nH]cn1)C(=O)N[C@@H](CC(=O)O)C(=O)N[C@@H](Cc1ccccc1)C(=O)N[C@H](C(=O)N[C@@H](CCC(=O)O)C(=O)N[C@@H](Cc1c[nH]c2ccccc12)C(=O)N[C@@H](CC(C)C)C(=O)N[C@@H](CC(C)C)C(=O)N[C@@H](CO)C(=O)N[C@@H](C)C(N)=O)C(C)C)C(=O)O) [Compound X, acylated glucagon analogue, glucagon-GLP-1 dual agonist] | significant decrease | 
2 | Insulin glargine [Lantus] | significant increase | -9.6 ± 1.9
3 | Insulin detemir [Levemir] | significant increase | -2.1 ± 1.6
